{"source": "patent US10745387B2", "about": "“Crystalline form of (2S,3S,6S,7R,10R,E)-7,10-dihydroxy-3,7-dimethyl-12-oxo-2-((R,2E,4E)-6-(piridin-2-yl)hepta-2,4-dien-2-yl)oxacyclododec-4-en-6-yl-4-methylpiperazine-1-carboxylate and methods of use thereof” (EISAI R&D MANAGEMENT CO., LTD., priority 2015, dated 2020)", "key": {"[1]": {"tested_on": "WiDr cells (wildtype SF3B1)", "assay": "Cell viability assay (CellTiter-Glo), WiDr", "assay_type": "cell-based", "conditions": "Homo sapiens, 72 hr, ATP (CellTiter-Glo)", "experimental": "(§1) Cells (WiDr and Panc05.04 obtained from ATCC) were seeded in 96-well plates, with 2000 cells/1004/well, and incubated overnight. Spent media was removed, and fresh, media containing 9 different concentrations of compound (1004/well) were added, with DMSO concentration from compound stock solution adjusted to be 0.1%. Each compound treatment was done in duplicate or triplicate at each concentration.\n(§2) Another plate with cells seeded was dedicated as a time zero (Tz) plate, to which was added 0.1% DMSO in media (1004/well) followed by CellTiter-Glo® reagent (Promega Corporation, Madison, Wis.) (504/well) for ATP measurement as a surrogate of cell viability. Average value from measurement of multiple wells of this plate is used as Tz.\n(§3) Compound-treated plates were incubated for 72 hr at 37° C. Then, CellTiter-Glo® reagent (504/well) was added and ATP was measured. […]\n(§4) Percentage growth inhibition/Percentage viability was calculated as: [(Ti−Tz)/(C−Tz)]×100 for concentrations for which Ti>/=Tz [(Ti−Tz)/Tz]×100 for concentrations for which Ti<Tz. *time zero (Tz), control growth (C), and test growth in the presence of compound (Ti) Percentage growth inhibition/Percentage viability are plotted versus compound concentration to determine Emax. […]"}, "[2]": {"tested_on": "splicing of Ad2 pre-mRNA in HeLa nuclear extract", "assay": "In vitro splicing (IVS) biochemical assay", "conditions": "90 min, 30° C.", "experimental": "Biotin-labeled pre-mRNA of an adenovirus type 2 construct with a deletion of intervening sequence (Ad2) (Berg, M. G., et al. 2012 Mol. Cell Bio., 32(7):1271-83) was prepared by in vitro transcription. The Ad2 construct containing Exon 1 (41 nucleotides), Intron (231 nucleotides), and Exon 2 (72 nucleotides) was generated by gene synthesis and cloned into the EcoRI and XbaI sites of pGEM®-3Z vector (Promega) by Genewiz® (South Plainfield, N.J.). The plasmid was then linearized by XbaI digestion and purified. In vitro transcription and purification of transcribed pre-mRNA were performed using the MEGAscript® T7 transcription kit (Invitrogen™, Life Technologies™, Grand Island, N.Y.) and MEGAclear™ transcription clean-up kit (Invitrogen™, Life Technologies™, Grand Island, N.Y.), respectively, following the manufacturer's instructions. […]\nIn vitro splicing assay was performed at 30° C. in 254 reaction mixtures containing 95 μg HeLa nuclear extract (Promega Corporation, Madison, Wis.), 47 nM Ad2 pre-mRNA, 25U RNasin RNase inhibitor (Promega Corporation, Madison, Wis.), 1×SP buffer (0.5 mM ATP, 20 mM creatine phosphate, 1.6 mM MgCl2), and compounds in DMSO (with 1% final concentration of DMSO). […] The amount of spliced RNA was quantified by measuring the band fluorescent intensity using LI-COR Image Studio software. […]"}, "[3]": {"tested_on": "Panc 05.04 (mt SF3B1 cells)", "assay": "Cell viability assay (CellTiter-Glo), Panc 05.04", "assay_type": "cell-based", "conditions": "72 hr", "experimental": "as §1, §2, §3, §4"}, "[4]": {"tested_on": "WiDr-R cells (SF3B1 R1074H mutation)", "assay": "Cell viability assay, resistant WiDr-R counter-screen", "assay_type": "cell-based", "conditions": "72 hr, ATP (CellTiter-Glo)"}, "[5]": {"tested_on": "WiDr-R cells (SF3B1 R1074H mutation)", "conditions": "cited from earlier work"}, "[6]": {"assay": "Solid state stability study", "assay_type": "physicochemical", "experimental": "Solid state stability studies were carried out on crystalline Form 1 under the following conditions: • Stored at 25° C. for 7 and 14 days • Stored at 40° C./75% RH (open) for 7 and 14 days • Stored at 60° C. for 7 and 14 days"}}, "data": [{"molecule": "C/C(=C\\C=C\\[C@@H](C)c1ccccn1)[C@H]1OC(=O)C[C@H](O)CC[C@@](C)(O)[C@@H](OC(=O)N2CCN(C)CC2)/C=C/[C@@H]1C", "note": "[Compound 1, (2S,3S,6S,7R,10R,E)-7,10-dihydroxy-3,7-dimethyl-12-oxo-2-((R,2E,4E)-6-(pyridin-2-yl)hepta-2,4-dien-2-yl)oxacyclododec-4-en-6-yl 4-methylpiperazine-1-carboxylate]", "values": [{"measurement": "GI50", "setting": "[1]", "result": 0.0318, "unit": "µM"}, {"measurement": "IC50", "setting": "[2]", "result": 1.33, "unit": "µM"}, {"measurement": "GI50", "setting": "[3]; ATP (CellTiter-Glo)", "result": 0.0327, "unit": "µM"}, {"measurement": "Emax", "setting": "[3]; negative value indicates cellular lethality", "result": -66.1, "unit": "%"}, {"measurement": "GI50", "setting": "[4]", "result": "> 1", "unit": "µM"}]}, {"molecule": "CCC(O)C(C)C1OC1CC(C)(O)/C=C/C=C(\\C)C1OC(=O)CC(O)CCC(C)(O)C(OC(=O)N2CCN(C3CCCCCC3)CC2)/C=C/C1C", "note": "(stereo not drawn) [Compound E7107, (8E,12E,14E)-7-((4-cycloheptylpiperazin-1-yl)carbonyl)oxy-3,6,16,21-tetrahydroxy-6,10,12,16,20-pentamethyl-18,19-epoxytricosa-8,12,14-trien-11-olide]", "values": [{"measurement": "Growth inhibition in WiDr-R cells (resistance)", "setting": "[5]", "result": "resistant"}]}, {"molecule": "C/C(=C\\C=C\\[C@@H](C)c1ccccn1)[C@H]1OC(=O)C[C@H](O)CC[C@@](C)(O)[C@@H](OC(=O)N2CCN(C)CC2)/C=C/[C@@H]1C", "note": "[crystalline Form 1, (2S,3S,6S,7R,10R,E)-7,10-dihydroxy-3,7-dimethyl-12-oxo-2-((R,2E,4E)-6-(pyridin-2-yl)hepta-2,4-dien-2-yl)oxacyclododec-4-en-6-yl 4-methylpiperazine-1-carboxylate]", "values": [{"measurement": "Degradation on storage (solid state stability)", "setting": "[6]; 25° C., 40° C./75% RH (open), 60° C., each for 7 and 14 days", "result": "No significant degradation"}, {"measurement": "Change in crystallinity (XRPD and TGA-DSC)", "setting": "[6]; 40° C./75% RH (open) for 14 days", "result": "no change in crystallinity"}]}, {"molecule": "pladienolide B", "values": [{"measurement": "Growth inhibition in WiDr-R cells (resistance)", "setting": "[5]", "result": "resistant"}]}]}
